The subject of the test is IL-8. Kind of test: Bioplex analysis of IL-8 release in TNF-α-induced IB3-1 cells. In kind it is cell-based, human. To be noted: 1 μM, compared to untreated TNF-α-stimulated IB3-1 cells, 5 h pretreatment then TNF-α 24 h. As for the experimental part:
The Bioplex cytokine assay is designed for the multiplexed quantitative measurement of multiple cytokines in a single well using as little as 50 μl of sample. In our experiments, the premixed multiplex beads (27-plex) of the Bioplex human cytokines were used. 50 μl of cytokine standards or samples (supernatants recovered from treated cells and diluted to 2 μg/μl) were incubated with 50 μl of anticytokine conjugated beads in 96-well filter plates for 30 min at room temperature with shaking. Plates were washed by vacuum filtration three times with 100 μl of Bioplex wash buffer, 25 μl of diluted detection antibody were added, and plates were incubated for 30 min at room temperature with shaking. After three filter washes, 50 μl of streptavidin-phycoerythrin were added, and the plates were incubated for 10 min at room temperature with shaking. Finally, plates were washed by vacuum filtration three times, beads were suspended in Bioplex assay buffer, and samples were analyzed on a Bio-Rad 96-well plate reader using the Bioplex Suspension Array System and Bioplex Manager software (Bio-Rad Laboratories Inc., Hercules, CA).
In order to verify the effects on the secretion of IL-8 by IB3-1 cells, Luminex technology was employed to detect and quantify proteins secreted into the medium. […]

Regarding `Cc1oc2c(C)cc3c(C)cc(=O)oc3c2c1C` [Compound 1], the “Reduction of IL-8 secretion” value was “about 50%”.

The values are drawn from publication PMC5635289, “Differential Effects of Angelicin Analogues on NF-κB Activity and IL-8 Gene Expression in Cystic Fibrosis IB3-1 Cells” (Mediators of Inflammation, 2017).
